Calls of active or inactive are those of the source.

A short description of experiment [1]: cells. The experiment is classed as functional, cell-based.
Experiment [2] has as its target T1, Serine/threonine-protein phosphatase (Homo sapiens, UniProt Q9BPW0).
T1 sequence (Q9BPW0 whole entry): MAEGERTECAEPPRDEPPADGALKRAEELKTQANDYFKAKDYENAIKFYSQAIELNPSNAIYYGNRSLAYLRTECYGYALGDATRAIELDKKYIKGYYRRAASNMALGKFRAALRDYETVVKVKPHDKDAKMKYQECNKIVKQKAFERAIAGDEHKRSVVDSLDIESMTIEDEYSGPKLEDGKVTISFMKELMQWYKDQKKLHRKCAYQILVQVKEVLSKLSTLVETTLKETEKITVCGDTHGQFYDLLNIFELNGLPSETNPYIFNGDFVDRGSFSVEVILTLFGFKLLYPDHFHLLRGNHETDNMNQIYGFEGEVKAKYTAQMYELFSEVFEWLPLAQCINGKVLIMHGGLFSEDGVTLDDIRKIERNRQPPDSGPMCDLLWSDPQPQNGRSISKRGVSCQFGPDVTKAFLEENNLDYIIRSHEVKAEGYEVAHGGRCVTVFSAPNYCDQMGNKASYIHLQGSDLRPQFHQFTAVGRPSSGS
Description: Counterscreen for inhibitors of PP1: fluorescence-based biochemical high throughput dose response assay to identify inhibitors of Protein Phosphatase 5 (PP5). [Related pubchem assays: 2034 (Summary (PP5 inhibitors)), 1987 (PP5 inhibitors in singlate), 2235 (PP1 inhibitors in singlate)]. For orientation: Counterscreens check selectivity or assay interference.

Experiment [3] in a line: inhibitors of intracellular T. cruzi replication, confirmation, NIH3T3 host cells, beta-gal luminescence (AID 2044).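 Further: intracellular parasites grown in NIH/3T3 mouse fibroblasts as host cells; luminescent beta-galactosidase reporter signal from transgenic T. cruzi replicating inside host cells; inhibitors lower the luminescence signal.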 The experiment is classed as functional, cell-based.
A short description of experiment [4]: control 3'UTR Renilla luciferase suppression, dose response, counter-screen for Shn3 inhibitor project, cell-based, Clone20-Shn3RL, cherry-picked (AID 624133). The experiment is classed as functional.
The nature of experiment [5]: cytotoxicity in HPDE-C7 cells, cell-based, fluorescence, HTS (AID 430). The experiment is classed as functional. Particulars: Homo sapiens.
For the next experiment, the target named is Nonstructural protein 1 (Influenza A virus, UniProt Q194T2). The experiment is classed as functional, Influenza A virus (A/California/07/2009(H1N1)).
Chain of Nonstructural protein 1 (Q194T2 whole entry): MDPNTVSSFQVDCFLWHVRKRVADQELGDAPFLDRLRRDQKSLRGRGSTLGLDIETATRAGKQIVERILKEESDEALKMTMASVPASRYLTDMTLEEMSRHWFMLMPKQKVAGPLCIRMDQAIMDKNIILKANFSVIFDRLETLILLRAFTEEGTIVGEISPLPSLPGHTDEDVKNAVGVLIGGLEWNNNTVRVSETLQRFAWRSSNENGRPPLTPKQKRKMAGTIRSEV
The target of the next experiment is T2, Streptokinase A (Streptococcus pyogenes serotype M1, UniProt P10520).
T2 sequence (P10520 whole entry): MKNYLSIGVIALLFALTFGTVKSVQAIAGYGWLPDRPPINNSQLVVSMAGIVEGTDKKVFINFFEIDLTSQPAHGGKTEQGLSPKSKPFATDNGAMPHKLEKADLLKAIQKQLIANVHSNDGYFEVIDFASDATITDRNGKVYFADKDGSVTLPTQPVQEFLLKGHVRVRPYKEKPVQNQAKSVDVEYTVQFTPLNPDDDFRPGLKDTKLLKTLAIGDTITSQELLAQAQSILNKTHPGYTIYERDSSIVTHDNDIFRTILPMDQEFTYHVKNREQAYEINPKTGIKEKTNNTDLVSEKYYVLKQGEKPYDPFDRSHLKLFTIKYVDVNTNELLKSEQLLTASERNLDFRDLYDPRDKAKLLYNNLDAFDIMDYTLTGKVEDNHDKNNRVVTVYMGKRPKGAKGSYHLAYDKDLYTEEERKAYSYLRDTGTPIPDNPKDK
Description: S. pyogenes streptokinase expression inhibitors, potency, dose response, plasminogen activation absorbance, OD405 (AID 1914).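 Further: secreted streptokinase activity via plasminogen activation per viability signal from cell pellet.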 The format is functional, Streptococcus pyogenes M1 GAS.

A short description of experiment [6]: Shn3 3'UTR reporter inhibitors, dose response, cell-based, Clone20 osteoblasts, firefly luciferase, cherry-picked (AID 624132).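 Further: firefly luciferase luminescence from reporter carrying the Shn3 3'UTR in osteoblasts.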 The experiment is classed as functional.
The target in experiment [7] is Serine/threonine-protein phosphatase PP1-alpha catalytic subunit (Homo sapiens, UniProt P62136). Description: PP1 phosphatase inhibitors, dose response, biochemical, fluorescence (AID 2403).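 Further: phosphatase turnover of OMFP into fluorescent 3-O-methylfluorescein.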
Chain of Serine/threonine-protein phosphatase PP1-alpha catalytic subunit (P62136 whole entry): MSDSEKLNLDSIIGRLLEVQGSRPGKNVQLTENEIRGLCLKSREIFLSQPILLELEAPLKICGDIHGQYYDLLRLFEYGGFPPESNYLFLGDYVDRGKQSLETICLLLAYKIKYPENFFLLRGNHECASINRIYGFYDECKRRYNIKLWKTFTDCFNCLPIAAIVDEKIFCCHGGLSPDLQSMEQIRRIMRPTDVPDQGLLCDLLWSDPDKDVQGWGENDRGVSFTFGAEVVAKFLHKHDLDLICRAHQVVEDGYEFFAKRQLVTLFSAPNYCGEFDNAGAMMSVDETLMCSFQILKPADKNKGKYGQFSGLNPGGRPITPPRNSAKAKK
The subject of experiment [8] is Streptococcus sp. 'group A'. Description: growth inhibition of control SK(-) GAS strain, dose response, counter-screen for streptokinase expression inhibitor project, luminescence, kanamycin, BacTiterGlo, confirmation (AID 1900). The format is functional, organism-based.
The nature of experiment [9]: HepG2 cell cytotoxicity, dose response, cytotoxicity control for Shn3 inhibitor project, CellTiter-Glo, cherry-picked (AID 624134). The experiment is classed as functional, cell-based. On the technique in general: ATP-based viability assays read luminescence as a measure of living cells.
Experiment [10] in a line: HepG2 cell cytotoxicity, dose response, cytotoxicity control, ATP luminescence, cherry-pick, activator set 2 (AID 1053143). The format is functional, cell-based.
A further experiment has as its system Streptococcus. Put plainly: Group A Streptococcus viability loss, dose response, counter-screen for streptokinase expression inhibitor project, luminescence, BacTiterGlo (AID 1915).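 Further: potency for reduction of bacterial viability or growth.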 The experiment is classed as functional, organism-based.
The next experiment relates to INS1. Put plainly: beta cell apoptosis inhibitors, cytokine rescue, dose response, luminescence, retest (AID 449756).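 Further: cell death triggered by IL-1 beta plus TNF-alpha plus IFN-gamma mixture; protective hits raise ATP signal compared with cytokine alone wells.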 The experiment is classed as functional, cell-based. The note with it: Rattus norvegicus.
Experiment [11] is described as follows: cells. The experiment is classed as functional, cell-based. This is another data set of the same source.
Experiment [12] is described as follows: Artemis endonuclease inhibitor potency, dose response, biochemical, fluorescence intensity (AID 720701).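 Further: Artemis endonuclease enzyme.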 The experiment is classed as functional.
Experiment [13] is described as follows: cytotoxicity toward NIH3T3 fibroblasts, dose response, counter-screen, cell-based, ATP luminescence, mouse fibroblasts (AID 2010).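 Further: cells exposed to compound for about 90 hours before reading.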 The experiment is classed as functional.
Experiment [14] can be described thus: cytotoxicity in KRAS-transformed pancreatic duct cells, primary screen, cell-based, fluorescence, HTS (AID 431).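 Further: cell line used: HPDE-C7K.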 The experiment is classed as functional. Particulars: Homo sapiens.
The nature of experiment [15]: cytotoxicity in HEK-293T cells, dose response, cytotoxicity control for TCR NF-kB inhibitor project, luminescence, T-cell screen hits (AID 489026).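 Further: cells exposed to compound about 14 hours before the viability readout.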 The experiment is classed as functional, cell-based.
The next experiment concerns HeLa. Put plainly: Cytotoxicity counterscreen assay for transcriptional activators of heat shock protein 70 (Hsp70). [Related pubchem assays: 1203, 1252 ]. The note with it: Homo sapiens. The experiment is classed as functional.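 Further: cells exposed to compound for 16 hours before readout.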
Another experiment addresses Beta-galactosidase (Escherichia coli, UniProt Q8VNN2). Description: PubChem AID 485352. The experiment is classed as functional.
Experiment [16] deals with T3, Type-1 angiotensin II receptor (Homo sapiens, UniProt P30556).
T3 sequence (P30556 whole entry): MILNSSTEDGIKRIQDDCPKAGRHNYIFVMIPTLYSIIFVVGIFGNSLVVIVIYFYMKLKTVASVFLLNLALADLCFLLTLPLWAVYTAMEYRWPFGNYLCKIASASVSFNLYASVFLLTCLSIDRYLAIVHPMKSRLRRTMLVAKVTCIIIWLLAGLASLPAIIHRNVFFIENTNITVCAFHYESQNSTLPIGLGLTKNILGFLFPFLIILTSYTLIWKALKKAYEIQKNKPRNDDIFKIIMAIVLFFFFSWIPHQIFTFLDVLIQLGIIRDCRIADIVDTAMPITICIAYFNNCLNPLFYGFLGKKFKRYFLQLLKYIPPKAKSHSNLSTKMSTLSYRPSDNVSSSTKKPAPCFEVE
Put plainly: AT1 receptor antagonists, dose response, selectivity assay for APJ receptor antagonist project, cell-based, uHTS hits (AID 463214).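 Further: antagonist potency against angiotensin II stimulated AT1 response.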 The format is functional.

Experiment [17] deals with G-protein coupled receptor 55 (Homo sapiens, UniProt Q9Y2T6). Put plainly: GPR55 antagonists blocking LPI-driven arrestin recruitment, primary screen, imaging, U2OS, beta-arrestin-GFP, LPI agonist (AID 2013).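 Further: antagonist potency measured as reduced agonist-driven arrestin aggregation.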 The experiment is classed as functional. For orientation: Recruitment of arrestin is a read-out of receptor activation apart from second messengers.
Chain of G-protein coupled receptor 55 (Q9Y2T6 whole entry): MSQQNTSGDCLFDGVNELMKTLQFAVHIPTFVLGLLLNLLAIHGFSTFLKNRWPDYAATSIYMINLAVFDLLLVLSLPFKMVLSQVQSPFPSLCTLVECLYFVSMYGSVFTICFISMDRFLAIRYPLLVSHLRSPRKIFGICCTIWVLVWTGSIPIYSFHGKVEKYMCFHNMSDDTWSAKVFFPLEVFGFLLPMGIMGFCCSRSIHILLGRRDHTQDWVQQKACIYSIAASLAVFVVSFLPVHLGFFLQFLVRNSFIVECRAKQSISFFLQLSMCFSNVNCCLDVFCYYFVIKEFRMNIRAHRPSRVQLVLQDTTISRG
Experiment [18] in a line: Luminescence-based dose response cell-based high throughput screening assay for cytotoxic compounds using the IEC-6 intestinal epithelial cell line. [Related pubchem assays: 1858 (Summary AID.), 1825 (Counterscreen.), 1907 (Confirmation screen.)]. The experiment is classed as functional.
Another experiment has as its target Ephrin type-A receptor 4 (Mus musculus, UniProt Q03137). Put plainly: inhibitors of EphA4 binding to KYL peptide, primary screen, biochemical, colorimetric, mouse EphA4 (AID 689). The format is functional.
The target of experiment [19] is ADP-ribosylation factor GTPase-activating protein 1 (Rattus norvegicus, UniProt Q62848). Put plainly: Fluorescence polarization-based biochemical high throughput dose response screening assay to identify inhibitors of ADP-ribosylation factor GTPase activating protein 1 (ARFGAP1). The format is functional.
Chain of ADP-ribosylation factor GTPase-activating protein 1 (Q62848 whole entry, the tested form may be a part): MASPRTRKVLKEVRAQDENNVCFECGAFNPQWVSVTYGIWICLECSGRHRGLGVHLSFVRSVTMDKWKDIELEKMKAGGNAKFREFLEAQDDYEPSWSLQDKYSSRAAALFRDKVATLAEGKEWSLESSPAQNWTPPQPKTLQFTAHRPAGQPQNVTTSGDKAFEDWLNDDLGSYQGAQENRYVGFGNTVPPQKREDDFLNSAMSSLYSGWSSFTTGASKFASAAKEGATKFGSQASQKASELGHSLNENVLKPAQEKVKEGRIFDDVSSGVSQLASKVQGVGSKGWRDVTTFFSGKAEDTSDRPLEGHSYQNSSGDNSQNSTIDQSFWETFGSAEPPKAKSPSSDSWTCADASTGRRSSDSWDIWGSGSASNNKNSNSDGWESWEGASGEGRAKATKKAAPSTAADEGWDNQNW
In experiment [20] the target is Arf-GAP with SH3 domain, ANK repeat and PH domain-containing protein 1 (Homo sapiens, UniProt Q9ULH1). The format is functional.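 Further: biochemical fluorescence polarization dose–response screen measuring inhibition of ASAP1; ASAP1 GAP domain stimulating GTP hydrolysis by truncated human ARF1.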
Experiment [21] concerns the target Protein-tyrosine kinase 2-beta (Homo sapiens, UniProt Q14289).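 Further: potency of inhibitors of PYK2 kinase phosphorylation of poly-GT substrate.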
Experiment [22] in a line: growth suppression of PTEN-null colon cells, dose response, cell-based, HCT116 PTEN knockout (AID 1047).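 Further: HCT116 colon tumor cells with PTEN knocked out; cells exposed to compound for 60 hours before readout; potency for loss of cell viability measured by luminescence.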 The experiment is classed as functional.

Chain of Ephrin type-A receptor 4 (Q03137 whole entry): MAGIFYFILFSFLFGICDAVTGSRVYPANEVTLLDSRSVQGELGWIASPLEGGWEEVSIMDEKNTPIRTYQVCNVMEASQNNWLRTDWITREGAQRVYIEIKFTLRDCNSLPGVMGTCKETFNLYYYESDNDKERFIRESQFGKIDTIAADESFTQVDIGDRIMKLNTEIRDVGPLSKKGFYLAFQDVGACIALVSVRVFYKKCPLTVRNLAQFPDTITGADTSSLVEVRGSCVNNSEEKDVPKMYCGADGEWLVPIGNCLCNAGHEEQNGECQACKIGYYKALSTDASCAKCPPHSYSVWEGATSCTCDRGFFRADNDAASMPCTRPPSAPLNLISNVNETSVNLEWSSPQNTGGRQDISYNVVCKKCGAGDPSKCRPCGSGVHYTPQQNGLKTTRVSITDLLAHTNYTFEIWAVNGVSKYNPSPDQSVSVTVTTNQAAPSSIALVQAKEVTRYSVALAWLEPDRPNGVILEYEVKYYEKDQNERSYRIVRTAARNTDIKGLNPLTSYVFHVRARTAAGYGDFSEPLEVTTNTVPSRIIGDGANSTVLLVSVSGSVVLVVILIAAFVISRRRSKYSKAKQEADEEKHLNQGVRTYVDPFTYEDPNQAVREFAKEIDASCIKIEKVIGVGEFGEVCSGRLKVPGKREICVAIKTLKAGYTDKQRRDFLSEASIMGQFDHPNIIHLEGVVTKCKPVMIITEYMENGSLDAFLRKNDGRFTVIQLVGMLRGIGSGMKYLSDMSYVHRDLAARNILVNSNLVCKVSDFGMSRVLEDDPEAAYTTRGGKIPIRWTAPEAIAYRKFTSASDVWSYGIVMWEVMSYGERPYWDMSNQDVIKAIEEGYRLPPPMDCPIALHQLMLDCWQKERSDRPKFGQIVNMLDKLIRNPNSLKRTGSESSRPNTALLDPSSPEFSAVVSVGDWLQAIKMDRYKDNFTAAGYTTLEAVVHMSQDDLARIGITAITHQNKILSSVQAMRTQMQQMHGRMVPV
Chain of Beta-galactosidase (Q8VNN2 whole entry): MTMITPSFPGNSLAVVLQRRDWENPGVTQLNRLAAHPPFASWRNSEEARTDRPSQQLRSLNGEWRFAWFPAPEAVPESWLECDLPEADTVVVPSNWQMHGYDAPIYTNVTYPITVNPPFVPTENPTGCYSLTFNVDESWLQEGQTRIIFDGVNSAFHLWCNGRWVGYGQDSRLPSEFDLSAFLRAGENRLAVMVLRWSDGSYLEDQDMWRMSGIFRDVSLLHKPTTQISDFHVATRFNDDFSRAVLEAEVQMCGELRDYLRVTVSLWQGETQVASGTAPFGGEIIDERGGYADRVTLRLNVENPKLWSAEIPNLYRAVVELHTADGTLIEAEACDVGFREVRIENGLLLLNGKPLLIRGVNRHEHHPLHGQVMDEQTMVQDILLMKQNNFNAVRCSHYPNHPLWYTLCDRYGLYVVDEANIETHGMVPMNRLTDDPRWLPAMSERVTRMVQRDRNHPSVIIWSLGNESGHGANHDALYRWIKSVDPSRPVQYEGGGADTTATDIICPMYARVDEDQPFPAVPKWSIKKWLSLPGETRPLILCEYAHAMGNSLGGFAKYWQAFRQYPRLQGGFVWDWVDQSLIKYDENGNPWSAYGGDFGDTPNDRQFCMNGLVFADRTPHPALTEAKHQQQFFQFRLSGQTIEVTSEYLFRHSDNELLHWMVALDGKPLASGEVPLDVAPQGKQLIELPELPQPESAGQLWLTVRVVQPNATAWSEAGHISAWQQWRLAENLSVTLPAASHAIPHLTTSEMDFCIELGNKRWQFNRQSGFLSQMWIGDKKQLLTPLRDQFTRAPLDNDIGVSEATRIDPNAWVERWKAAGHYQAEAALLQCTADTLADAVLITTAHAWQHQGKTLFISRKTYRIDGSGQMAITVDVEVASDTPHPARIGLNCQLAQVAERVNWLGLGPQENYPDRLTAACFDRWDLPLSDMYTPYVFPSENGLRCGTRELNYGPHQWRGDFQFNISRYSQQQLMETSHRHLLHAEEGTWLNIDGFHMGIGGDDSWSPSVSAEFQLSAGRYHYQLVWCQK
Chain of Protein-tyrosine kinase 2-beta (Q14289 whole entry): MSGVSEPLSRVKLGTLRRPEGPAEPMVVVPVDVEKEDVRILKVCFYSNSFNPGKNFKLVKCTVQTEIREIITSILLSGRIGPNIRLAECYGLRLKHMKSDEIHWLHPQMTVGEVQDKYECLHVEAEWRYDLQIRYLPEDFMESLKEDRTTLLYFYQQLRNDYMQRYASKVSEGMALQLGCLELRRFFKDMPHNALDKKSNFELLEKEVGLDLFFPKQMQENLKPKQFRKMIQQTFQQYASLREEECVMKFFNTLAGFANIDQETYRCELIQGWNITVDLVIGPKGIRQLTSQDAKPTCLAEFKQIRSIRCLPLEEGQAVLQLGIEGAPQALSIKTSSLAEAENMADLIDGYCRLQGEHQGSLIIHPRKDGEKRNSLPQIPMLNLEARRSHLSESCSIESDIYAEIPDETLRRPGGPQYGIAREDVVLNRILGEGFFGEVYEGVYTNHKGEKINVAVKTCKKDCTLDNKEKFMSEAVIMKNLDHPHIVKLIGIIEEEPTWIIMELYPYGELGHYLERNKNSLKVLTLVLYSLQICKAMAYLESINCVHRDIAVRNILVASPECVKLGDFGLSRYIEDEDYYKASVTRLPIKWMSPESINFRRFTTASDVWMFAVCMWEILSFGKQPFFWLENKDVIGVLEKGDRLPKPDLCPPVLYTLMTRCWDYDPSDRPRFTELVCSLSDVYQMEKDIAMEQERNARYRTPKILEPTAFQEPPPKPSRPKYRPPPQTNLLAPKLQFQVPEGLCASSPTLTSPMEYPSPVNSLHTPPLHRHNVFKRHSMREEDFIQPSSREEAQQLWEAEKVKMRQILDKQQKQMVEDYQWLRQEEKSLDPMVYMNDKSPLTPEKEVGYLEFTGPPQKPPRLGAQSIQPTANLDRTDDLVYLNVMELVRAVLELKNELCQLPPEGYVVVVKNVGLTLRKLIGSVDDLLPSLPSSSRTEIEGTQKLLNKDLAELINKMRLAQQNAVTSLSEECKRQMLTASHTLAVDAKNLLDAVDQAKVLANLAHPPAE

Take `Oc1c(C(Nc2ccccn2)c2ccccn2)ccc2cccnc12` (centres undefined): the EC50 (as a rule, the concentration giving half of the maximal effect) in “cells [1]” is 9.9 µM (active); in experiment [3] it was 1.22 µM (active); in [5], 17.6 µM (active); at Streptokinase A, > 150 µM (not active); in experiment [8], 7.44 µM (active); in the experiment on Streptococcus, 14.8 µM (active). The EC50 in “cells [11]” was > 350 µM (not active); in [13], 5.87 µM (active); in experiment [14], > 20 µM (not active). The IC50 (as a rule, the concentration that gives 50% inhibition) in [2] is > 67 µM (not active); on Nonstructural protein 1, 8.2 µM (active); in [7], 3.82 µM (active); in [12], 11.4 µM (active). Moreover, the AC50 (as a rule, the concentration giving half of the maximal activity seen) in experiment [4] was 2.88 µM (active); in experiment [6] it was 4.36 µM (active); in experiment [9], 6 µM (active); in [10], 21.9 µM (active); in the experiment on INS1 it was 2.79 µM (active).
For the molecule `COc1ccc(NC(=O)/C(Cl)=C(/Cl)[S+]([O-])Cc2ccccc2Cl)cn1` (centres undefined), the IC50 was 25.3 µM (inactive) in [15], 4.54 µM (active) in experiment [16], 3.25 µM (active) in experiment [17] and 1.36 µM (active) in experiment [18]. Further, the CC50 – broadly, the concentration that lowers cell viability or growth by half – in the experiment with HeLa is 1.43 µM (active). The EC50 at Beta-galactosidase was > 40 µM (inactive).
For `Cc1ccccc1C(=O)c1cccn1CC(=O)NCC1CCCO1` (centres undefined), the half-maximal inhibitory concentration (IC50) at Ephrin type-A receptor 4 is recorded as > 100 µM (not active).
As for `Cc1ccc2cc3cc(C(=O)NCc4ccc5c(c4)OCO5)oc3nc2c1`, the IC50 in [19] is 16.7 µM (inactive); in experiment [20], 12.5 µM (inactive); in [21] it was 46.5 µM (not active). Also, the EC50 in [22] is 20.9 µM (active).

The values are drawn from ChEMBL document CHEMBL1201862, “PubChem BioAssay data set” (2004).
